pIC50: −log10 of the molar value.
biological target: T1, VEGFR/KDR (Homo sapiens, UniProt P35968); experiment: VEGFR/KDR kinase inhibition, DELFIA assay; assay type: biochemical; settings: ATP 0.6 uM (2x Km), enzyme 5 nM
T1 construct: made in house; host or cells: Sf9 cells (Spodoptera frugiperda), baculovirus
In short: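 DELFIA time-resolved fluorescence readout using Europium-tagged anti-phosphotyrosine antibody after EDTA stop. Kinase reaction on plate-bound poly(Glu4,Tyr) ran 10-30 min at 30° C with 5 nM enzyme and 0.6 uM ATP (2× Km), following 4 min on-ice pre-incubation with compound; IC50 over a concentration range.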

T1 sequence (P35968 806-1356): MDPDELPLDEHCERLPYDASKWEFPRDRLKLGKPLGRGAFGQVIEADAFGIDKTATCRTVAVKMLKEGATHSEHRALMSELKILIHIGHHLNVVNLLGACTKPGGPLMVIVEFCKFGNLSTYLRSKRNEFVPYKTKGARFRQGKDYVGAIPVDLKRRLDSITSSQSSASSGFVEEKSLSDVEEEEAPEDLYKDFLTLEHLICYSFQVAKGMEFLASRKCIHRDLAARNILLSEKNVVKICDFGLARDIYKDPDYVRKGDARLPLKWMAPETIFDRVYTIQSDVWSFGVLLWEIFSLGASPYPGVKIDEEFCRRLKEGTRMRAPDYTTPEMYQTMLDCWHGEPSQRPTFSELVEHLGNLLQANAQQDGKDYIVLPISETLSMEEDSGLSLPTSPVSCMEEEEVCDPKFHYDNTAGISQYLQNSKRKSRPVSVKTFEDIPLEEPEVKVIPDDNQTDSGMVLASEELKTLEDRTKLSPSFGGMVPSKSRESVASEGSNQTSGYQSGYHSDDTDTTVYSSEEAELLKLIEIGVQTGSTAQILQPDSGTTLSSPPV

pIC50	Compound
> 7.30	CCNC(=O)N(CCOC)Cc1cnc(-c2cc3nccc(Oc4ccc(NC(=O)NC5CC5)cc4F)c3s2)n1C [Compound 161-B, 1-((2-(7-(4-cyclopropylaminocarbonylamino-2-fluorophenoxy)thieno[3,2-b]pyridin-2-yl)-1-methyl-1H-imidazol-5-yl)methyl)-3-ethyl-1-(2-methoxyethyl)urea]
> 7.30	O=C(Nc1ccc(Oc2ccnc3cc(-c4cnn(CCN5CCCC5=O)c4)sc23)c(F)c1)NC1CC1 [Compound 166, 1-cyclopropyl-3-(3-fluoro-4-(2-(1-(2-(2-oxopyrrolidin-1-yl)ethyl)-1H-pyrazol-4-yl)thieno[3,2-b]pyridin-7-yloxy)phenyl)urea]
> 7.30	O=C(Nc1ccc(Oc2ccnc3cc(-c4ccc(CN5CCC[C@H]5C(=O)O)cn4)sc23)c(F)c1)NC1CC1 [Compound 173, (S)-1-((6-(7-(4-(3-cyclopropylureido)-2-fluorophenoxy)thieno[3,2-b]pyridin-2-yl)pyridin-3-yl)methyl)pyrrolidine-2-carboxylic acid]
> 7.30	O=C(Nc1ccc(Oc2ccnc3cc(-c4ccc(CCN5CCOCC5)cn4)sc23)c(F)c1)NC1CC1 [Compound 178, 1-cyclopropyl-3-(3-fluoro-4-(2-(5-(2-morpholinoethyl)pyridin-2-yl)thieno[3,2-b]pyridin-7-yloxy)phenyl)urea]
> 7.30	COCCN(Cc1cnc(-c2cc3nccc(Oc4ccc(NC(=O)NC5CC5)cc4F)c3s2)n1C)C(=O)NC(C)C [Compound 189]
> 7.30	COCCN(Cc1ccc(-c2cc3nccc(Oc4ccc(NC(=O)NC5CC5)cc4F)c3s2)nc1)C(=O)NC(C)C [Compound 190, 1-((6-(7-(4-cyclopropylaminocarbonylamino-2-fluorophenoxy)-thieno[3,2-b]pyridin-2-yl)pyridin-3-yl)methyl)-3-isopropyl-1-(2-methoxyethyl)urea]
> 7.30	COCCN(Cc1ccc(-c2cc3nccc(Oc4ccc(NC(=O)NC5CC5)cc4F)c3s2)cc1)C(=O)NC1CCCC1 [Compound 194, 1-(4-(7-(4-cyclopropylaminocarbonylamino-2-fluorophenoxy)thieno-[3,2-b]pyridin-2-yl)benzyl)-3-cyclopentyl-1-(2-methoxyethyl)urea]
> 7.30	CCNC(=O)N(CCOC)Cc1ccc(-c2cc3nccc(Oc4ccc(NC(=O)NC5CC5)cc4F)c3s2)cc1 [Compound 195, 1-(4-(7-(4-cyclopropylaminocarbonylamino-2-fluorophenoxy)thieno[3,2-b]pyridin-2-yl)benzyl)-3-ethyl-1-(2-methoxyethyl)urea]
> 7.30	COCCN(Cc1cnc(-c2cc3nccc(Oc4ccc(NC(=O)NC5CC5)cc4F)c3s2)n1C)C(C)=O [Compound 212, N-((2-(7-(4-(3-cyclopropylureido)-2-fluorophenoxy)thieno[3,2-b]pyridin-2-yl)-1-methyl-1H-imidazol-5-yl)methyl)-N-(2-methoxyethyl)acetamide]
> 7.30	Cn1c(C(=O)NCCN2CCOCC2)cnc1-c1cc2nccc(Oc3ccc(NC(=O)NC4CC4)cc3F)c2s1 [Compound 217, 2-(7-(4-(3-cyclopropylureido)-2-fluorophenoxy)thieno[3,2-b]pyridin-2-yl)-1-methyl-N-(2-morpholinoethyl)-1H-imidazole-5-carboxamide]
> 7.30	CC(C)NC(=O)Nc1ccc(Oc2ccnc3cc(-c4ncc(C(=O)NCCN5CCOCC5)n4C)sc23)c(F)c1 [Compound 218, 2-(7-(2-fluoro-4-(3-isopropylureido)phenoxy)thieno[3,2-b]pyridin-2-yl)-1-methyl-N-(2-morpholinoethyl)-1H-imidazole-5-carboxamide]
> 7.30	Cn1c(C(=O)N2CCCC2)cnc1-c1cc2nccc(Oc3ccc(NC(=O)NC4CC4)cc3F)c2s1 [Compound 222, 1-cyclopropyl-3-(3-fluoro-4-(2-(1-methyl-5-(pyrrolidine-1-carbonyl)-1H-imidazol-2-yl)thieno[3,2-b]pyridin-7-yloxy)phenyl)urea]
6.60 to 7.00	CC(C)NC(=O)Nc1ccc(Oc2ccnc3cc(-c4ncc(C(=O)N5CCCC5)n4C)sc23)c(F)c1 [Compound 223, 1-(3-fluoro-4-(2-(1-methyl-5-(pyrrolidine-1-carbonyl)-1H-imidazol-2-yl)thieno[3,2-b]pyridin-7-yloxy)phenyl)-3-isopropylurea]
> 7.30	Cn1c(C(=O)NCCCN2CCOCC2)cnc1-c1cc2nccc(Oc3ccc(NC(=O)NC4CC4)cc3F)c2s1 [Compound 224]
> 7.30	O=C(Nc1ccc(Oc2ccnc3cc(-c4ccc(C(=O)O)cn4)sc23)c(F)c1)NC1CC1 [Compound 225, 6-(7-(4-(3-Cyclopropylureido)-2-fluorophenoxy)thieno[3,2-b]pyridin-2-yl)nicotinic acid]
> 7.30	CN(C)[C@@H]1CCN(C(=O)c2ccc(-c3cc4nccc(Oc5ccc(NC(=O)NC6CC6)cc5F)c4s3)nc2)C1 [Compound 227, (R)-1-cyclopropyl-3-(4-(2-(5-(3-(dimethylamino)pyrrolidine-1-carbonyl)pyridin-2-yl)thieno[3,2-b]pyridin-7-yloxy)-3-fluorophenyl)urea]
> 7.30	CN1CCN(C(=O)c2ccc(-c3cc4nccc(Oc5ccc(NC(=O)NC6CC6)cc5F)c4s3)nc2)CC1 [Compound 228, 1-cyclopropyl-3-(3-fluoro-4-(2-(5-(4-methylpiperazine-1-carbonyl)pyridin-2-yl)thieno[3,2-b]pyridin-7-yloxy)phenyl)urea]
> 7.30	COCCOCCOCCOCCNC(=O)c1ccc(-c2cc3nccc(Oc4ccc(NC(=O)NC5CC5)cc4F)c3s2)nc1 [Compound 229, 6-(7-(4-(3-cyclopropylureido)-2-fluorophenoxy)thieno[3,2-b]pyridin-2-yl)-N-(2,5,8,11-tetraoxatridecan-13-yl)nicotinamide]

Continued, compound first:

Compound	pIC50
O=C(O)CCCNCc1ccc(-c2cc3nccc(Oc4ccc(NC(=O)NC5CC5)c(F)c4F)c3s2)nc1 [Compound 168, 4-((6-(7-(4-(3-cyclopropylureido)-2,3-difluorophenoxy)thieno[3,2-b]pyridin-2-yl)pyridin-3-yl)methylamino)butanoic acid]	> 7.30
O=C(Nc1ccc(Oc2ccnc3cc(-c4ccc(CN5CCCC5=O)cn4)sc23)c(F)c1F)NC1CC1 [Compound 169, 1-cyclopropyl-3-(2,3-difluoro-4-(2-(5-((2-oxopyrrolidin-1-yl)methyl)pyridin-2-yl)thieno[3,2-b]pyridin-7-yloxy)phenyl)urea]	> 7.30
NC(CCCCNCc1ccc(-c2cc3nccc(Oc4ccc(NC(=O)NC5CC5)c(F)c4F)c3s2)nc1)C(=O)O (stereo not drawn) [Compound 170, 2-amino-6-((6-(7-(4-(3-cyclopropylureido)-2,3-difluorophenoxy)thieno[3,2-b]pyridin-2-1)pyridin-3-yl)methylamino)hexanoic acid]	> 7.30
COCCOCCOCCOCCNCc1ccc(-c2cc3nccc(Oc4ccc(NC(=O)NC5CC5)c(F)c4F)c3s2)nc1 [Compound 171, 1-(4-(2-(5-5,8,11,14-tetraoxa-2-azapentadecylpyridin-2-yl)thieno[3,2-b]pyridin-7-yloxy)-2,3-diiluorophenyl)-3-cyclopropylurea]	> 7.30
O=C(O)CCN1CCN(Cc2ccc(-c3cc4nccc(Oc5ccc(NC(=O)NC6CC6)c(F)c5F)c4s3)nc2)CC1 [Compound 172, 3-(4-((6-(7-(4-(3-cyclopropylureido)-2,3-difluorophenoxy)thieno-[3,2-b]pyridin-2-yl)pyridin-3-yl)methyl)piperazin-1-yl)propanoic acid]	> 7.30
COCCOCCOCCOCCN(C)Cc1ccc(-c2cc3nccc(Oc4ccc(NC(=O)NC5CC5)cc4F)c3s2)nc1 [Compound 180, 1-cyclopropyl-3-(3-fluoro-4-(2-(5-(2-methyl-5,8,11,14-tetraoxa-2-azapentadecyl)pyridin-2-yl)thieno[3,2-b]pyridin-7-yloxy)phenyl)urea]	> 7.30
COCCNCCc1ccc(-c2cc3nccc(Oc4ccc(NC(=O)Nc5cc(C)on5)cc4F)c3s2)nc1 [Compound 183, 1-(3-fluoro-4-(2-(5-(2-(2-methoxyethylamino)ethyl)pyridin-2-yl)thieno[3,2-b]pyridin-7-yloxy)phenyl)-3-(5-methylisoxazol-3-yl)urea]	> 7.30
COCCNCCc1ccc(-c2cc3nccc(Oc4ccc(NC(=O)C5(C(=O)Nc6ccc(F)cc6)CC5)cc4F)c3s2)nc1 [Compound 185, N-(3-fluoro-4-(2-(5-(2-(2-methoxyethylamino)ethyl)pyridin-2-yl)thieno[3,2-b]pyridin-7-yloxy)phenyl)-N-(4-fluorophenyl)cyclopropane-1,1-dicarboxamide]	> 7.30
COCCNCCc1ccc(-c2cc3nccc(Oc4ccc(NC(=S)NC(=O)Cc5ccc(F)cc5)cc4F)c3s2)nc1 [Compound 187, N-(3-fluoro-4-(2-(5-(2-(2-methoxyethylamino)ethyl)pyridin-2-yl)thieno[3,2-b]pyridin-7-yloxy)phenylcarbamothioyl)-2-(4-fluorophenyl)acetamide]	> 7.30
COCCN(Cc1ccc(-c2cc3nccc(Oc4ccc(NC(=O)NC5CC5)cc4F)c3s2)cc1)C(=O)NC(C)C [Compound 193, 1-(4-(7-(4-cyclopropylaminocarbonylamino-2-fluorophenoxy)thieno-[3,2-b]pyridin-2-yl)benzyl)-3-isopropyl-1-(2-methoxyethyl)urea]	> 7.30
CC(C)NC(=O)Nc1ccc(Oc2ccnc3cc(-c4ccc(CN5CCCOC5=O)cn4)sc23)c(F)c1 [Compound 201, 1-(3-fluoro-4-(2-(5-((2-oxo-1,3-oxazinan-3-yl)methyl)pyridin-2-yl)thieno[3,2-b]pyridin-7-yloxy)phenyl)-3-isopropylurea]	> 7.30
CC(C)NC(=O)Nc1ccc(Oc2ccnc3cc(-c4ccc(CN5CCCC5=O)cc4)sc23)c(F)c1 [Compound 205, 1-(3-fluoro-4-(2-(4-((2-oxopyrrolidin-1-yl)methyl)phenyl)thieno[3,2-b]pyridin-7-yloxy)phenyl)-3-isopropylurea]	7.00 to 7.30
